“And” between values parts separate entries of the source, which are not always exact repeats. Equal entries are not always repeated. The source made the active and inactive calls.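 Rule for the calls: active = viability signal falls, with AC50 at or below a set limit tied to the top tested dose; inconclusive = flat curve with moderate signal loss, or poor fit; inactive = the rest, including rising signal.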
test system: not listed separately; experiment: HepG2 cell cytotoxicity, dose response, cytotoxicity control, CellTiter-Glo luminescence, dry powder, set 13 (AID 977619); conditions: HepG2 viability, CellTiter-Glo ATP luminescence, 72 h; at 30 µM (top of the series)

Compound | activity change, negative = cytotoxicity
Cc1cnc(NC(=O)c2cc(S(=O)(=O)N3CCNCC3)ccc2N2CCCC2)s1 | -16.2% (inactive)
CN(C)S(=O)(=O)c1ccc(N2CCCC2)c(C(=O)Nc2ccccc2F)c1 | 0.657% (inactive)
COc1ccc2nc(NC(=O)c3cc(S(=O)(=O)N(C)C)ccc3N3CCCC3)sc2c1 | -15% (inactive)
Cc1cnc(NC(=O)c2cc(S(=O)(=O)NCc3ccccc3)ccc2N2CCCC2)s1 | -8.91% (inactive)
CN(C)CCCN(Cc1cc2ccccc2[nH]c1=O)C(=O)Nc1ccccc1 | -20.2% (inactive)
CN(C)CCCN(Cc1cc2ccccc2[nH]c1=O)C(=O)NCc1ccccc1 | -20.2% (inactive)
CN(C)S(=O)(=O)c1ccc(N2CCCC2)c(C(=O)Nc2nccs2)c1 | -14.2% (inactive)
Cc1cnc(NC(=O)c2cc(S(=O)(=O)N(CC(C)C)CC(C)C)ccc2N2CCCC2)s1 | 2.42% (inactive)
Cc1cnc(NC(=O)c2cc(S(=O)(=O)N3CCCCC3)ccc2N2CCCC2)s1 | -1.49% (inactive)
Cc1cnc(NC(=O)c2cc(S(=O)(=O)N(C)C)ccc2N2CCC2)s1 | -16.2% (inactive)
Cc1ccccc1NC(=O)c1cc(S(=O)(=O)N(C)C)ccc1N1CCCC1 | -8.5% (inactive)
COc1ccc2sc(NC(=O)c3cc(S(=O)(=O)N(C)C)ccc3N3CCCC3)nc2c1 | 12.7% (inactive)
CN(C)S(=O)(=O)c1ccc(N2CCCC2)c(C(=O)N2CCOCC2)c1 | -23.2% (inactive)
CN(C)S(=O)(=O)c1ccc(N2CCCC2)c(C(=O)Nc2nc3ccccc3s2)c1 | -28% (inactive)
CN(C)S(=O)(=O)c1ccc(N2CCCC2)c(C(=O)Nc2ccccc2)c1 | -16.8% (inactive)
CN(C)S(=O)(=O)c1ccc(N2CCCC2)c(C(=O)NC2CCCCC2)c1 | -17.5% (inactive)
Cc1cnc(NC(=O)c2cc(S(=O)(=O)N3CCOCC3)ccc2N2CCCC2)s1 | -27.5% (inactive)
COc1ccc(NC(=O)c2cc(S(=O)(=O)N(C)C)ccc2N2CCCC2)cc1 | -5.62% (inactive)
Cc1cnc(NC(=O)c2cccc(S(=O)(=O)N(C)C)c2)s1 | 0.262% (inactive)

Compound | activity change, negative = cytotoxicity
COc1cccc2sc(NC(=O)c3cc(S(=O)(=O)N(C)C)ccc3N3CCCC3)nc12 | -0.843% (inactive)
CN(C)S(=O)(=O)c1ccc(N2CCCC2)c(C(=O)Nc2ccccc2Cl)c1 | 0.028% (inactive)
Cc1ccc(NC(=O)c2cc(S(=O)(=O)N(C)C)ccc2N2CCCC2)cc1 | -24% (inactive)
CN(C)S(=O)(=O)c1ccc(N2CCCC2)c(C(=O)Nc2cccnc2)c1 | -8.96% (inactive)
CN(C)S(=O)(=O)c1ccc(N2CCCC2)c(C(=O)Nc2ccncc2)c1 | -16.4% (inactive)
Cc1nnc(NC(=O)c2cc(S(=O)(=O)N(C)C)ccc2N2CCCC2)s1 | -4.85% (inactive)
Cc1nc(NC(=O)c2cc(S(=O)(=O)N(C)C)ccc2N2CCCC2)n[nH]1 | 7.89% (inactive)
CN(C)S(=O)(=O)c1ccc(N2CCCC2)c(C(=O)Nc2ccc(Br)cc2)c1 | 3.71% (inactive)
CCN(CC)S(=O)(=O)c1ccc(N2CCCC2)c(C(=O)Nc2ncc(C)s2)c1 | -6.49% (inactive)
Cc1cnc(NC(=O)c2cc(S(=O)(=O)N(C)C)ccc2C2CCCC2)s1 | 1.56% (inactive)
CN(C)C(=O)c1cc(S(=O)(=O)N(C)C)ccc1N1CCCC1 | -5.71% (inactive)
Cc1cnc(NC(=O)c2cc(S(=O)(=O)N(C)c3ccccc3)ccc2N2CCCC2)s1 | 2.13% (inactive)
Cc1cnc(NC(=O)c2cc(S(=O)(=O)N(C)C)ccc2N2CCCCC2)s1 | -24.5% (inactive)
CN(C)S(=O)(=O)c1ccc(N2CCCC2)c(C(=O)Nc2cccc(F)c2)c1 | -10% (inactive)
Cc1cnc(NC(=O)c2cc(S(=O)(=O)N(C)C)ccc2N2CCCC2)s1 | -11% (inactive) and -24.4% (inactive)
Cc1cnc(NC(=O)c2cc(S(=O)(=O)N(C)C)ccc2N(C)C)s1 | -8.52% (inactive)
Cc1cnc(NC(=O)c2cc(S(=O)(=O)N(C)C)ccc2N2CCNCC2)s1 | 2.09% (inactive)
COc1ccccc1NC(=O)c1cc(S(=O)(=O)N(C)C)ccc1N1CCCC1 | -1.12% (inactive)
CCN(CC)c1ccc(S(=O)(=O)N(C)C)cc1C(=O)Nc1ncc(C)s1 | -14.5% (inactive)

test system: HepG2 viability, CellTiter-Glo ATP luminescence, 72 h; experiment: as above; conditions: not given

Compound | AC50
Cc1csc(NC(=O)c2cc(S(=O)(=O)N(C)C)ccc2N2CCCC2)n1 | > 60 µM (inactive)
Cc1cnc(NC(=O)c2cc(S(=O)(=O)N3CCCC3)ccc2N2CCCC2)s1 | > 60 µM (inactive)

Reference: PubChem BioAssay AID977619 (Broad Institute, 2014)
